Measured values as given in patent publication US20210260022A1, “SYNERGY FOR INCREASING ENERGY EXPENDITURE AND INSULIN SENSITIVITY” (The Board of Supervisors of Louisiana State University and …, priority 2018, published 2021).
Entries after “also recorded” stand apart in the source; their conditions may differ. Read-outs that look alike come from different tables or passages of the source.

Legend:
human adipocytes [1] = experiment: Western blotting of protein levels in treated human adipocytes; format: cell-based
Description: Referring to FIG. 2, human adipocyte cultures were treated with naringenin for 0, 3 or 7d. Total protein was isolated and analyzed by Western Blotting. […] TGX SDS-PAGE gels (7.5%TM, BioRad) were used to separate 50 μg of solubilized protein per sample. Following transfer, nitrocellulose membranes were probed overnight at 4° C. with primary monoclonal antibodies against adiponectin, NAMPT, and PPARγ (Santa Cruz), PGC-1α monoclonal (4C1.3, EMDmillipore) and β-Actin (A5316, Sigma). HRP-linked anti-rabbit (12-348, Sigma) and anti-mouse (A[…], Sigma) were used to detect specific antibody-antigen complexes. Proteins were visualized by chemiluminescence (Western Lightning Plus-ECL, PerkinElmer, Waltham, Mass.). Bands were quantified using ImageJ software and values shown are normalized to β-actin.

[2] = cell culture and animal studies; cited from earlier work
ovariectomized mice = settings: cited from earlier work
[3] = Eight-week case study of naringenin 150 mg three times daily in a subject with diabetes; format: in vivo, human
Description: A subject was recruited. […] The subject met the inclusion criteria of fasting blood glucose between 126 and 200 mg/dL. They had been prescribed metformin but had discontinued the medication due to gastrointestinal intolerance. Exclusion criteria consisted of known allergy to citrus fruit. The study was approved by the Pennington Biomedical Research Center (PBRC) Institutional Review Board. The participant provided written informed consent. Procedures were in accordance with PBRC's ethical standards. We conducted an eight-week case study. The subject completed three visits to the clinic. Visits were performed in the morning after an overnight fast for at least eight hours where only water was permitted. At the baseline visit, upon arrival, weight and vital signs (blood pressure and heart rate) were measured. […] Blood was collected for a chemistry panel (glucose, insulin, creatinine, potassium, uric acid, albumin, calcium, magnesium, creatine phosphokinase, alanine aminotransferase, alkaline phosphatase, iron, total cholesterol high density lipoprotein cholesterol [HDL-C], low density lipoprotein cholesterol [LDL-C], and triglycerides) and a complete blood count (CBC). Resting metabolic rate (RMR) was measured over five hours at baseline and at the end of eight weeks using the ventilated hood to collect expirated gases. The test required the subject to lie quietly in bed after ingesting a capsule containing 150 mg naringenin. To evaluate the subject's metabolic rate, oxygen consumed and the carbon dioxide given off were measured during the last thirty minutes of each hour. Following the baseline testing, the subject was given 100 capsules each containing 150 mg naringenin with instructions to take one orally three times daily. At weeks two and six, the subject received a phone call from the study coordinator and was asked about their progress and compliance. Changes in medications and adverse events were also evaluated. They were encouraged to comply with the study protocol. At week four, the subject returned to the clinic and their weight, blood pressure, and heart rate were measured. Any remaining capsules were collected and compliance was assessed. Naringenin (100 capsules) for the next four weeks was dispensed. Week eight marked the subject's last visit and involved repeating the baseline testing. At this visit, the subject returned any remaining capsules, and compliance was assessed. Whole sweet oranges (Citrus Sinensis) were subjected to an aqueous and ethanolic extraction process, dried, milled, and provided in a powder form by Green Chem/Gencor Lifestage Solutions (Irvine, Calif.). The quantification of naringenin in the extract, and the safety and pharmacokinetics of the extract in humans are previously described.^15 The extract contained 28% naringenin. Therefore each capsule prepared by the PBRC pharmacist contained 536 mg of the extract.

PPARα = target: T1, PPARα (Homo sapiens, UniProt Q07869); settings: reporter gene assays; cited from earlier work
T1 sequence (Q07869 1-468): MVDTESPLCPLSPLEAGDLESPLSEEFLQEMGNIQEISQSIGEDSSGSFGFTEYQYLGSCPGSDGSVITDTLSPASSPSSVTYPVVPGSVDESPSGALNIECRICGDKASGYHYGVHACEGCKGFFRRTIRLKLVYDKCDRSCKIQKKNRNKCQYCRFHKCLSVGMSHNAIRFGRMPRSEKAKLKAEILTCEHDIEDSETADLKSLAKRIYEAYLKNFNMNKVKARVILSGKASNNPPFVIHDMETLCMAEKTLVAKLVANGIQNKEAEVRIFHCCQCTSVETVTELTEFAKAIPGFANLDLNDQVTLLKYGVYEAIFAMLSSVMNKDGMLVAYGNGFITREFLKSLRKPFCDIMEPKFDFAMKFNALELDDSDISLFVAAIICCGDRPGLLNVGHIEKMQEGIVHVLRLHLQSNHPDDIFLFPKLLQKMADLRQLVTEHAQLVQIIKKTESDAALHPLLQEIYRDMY

[4] = cited from earlier work
human adipocytes [5] = experiment: mRNA expression (Taqman RT-PCR) in differentiated human adipocytes after 7 day treatment; format: cell-based
Description: Carotenoids tested were β-carotene (βCar), Lycopene (lyco) and lutein. […] In our preclinical lab at PBRC, human subcutaneous adipocyte cell cultures were treated with naringenin at a concentration of 10 μM for seven days. […] Differentiated human adipocytes were treated with 10 μM naringenin for 7 days. Gene expression was analyzed using Taqman RT-PCR and values are expressed as fold increase over untreated controls (n=5). […] Activated AMPK induces glucose consumption and fat oxidation in adipose tissue. Carotenoids are vitamin A precursors found in foods and their consumption can cause reduction in adiposity and insulin resistance in pediatric clinical trials (Canas et al., 2012; Canas et al., 2017). After ingestion, they are metabolized into retinoid ligands for retinoic acid receptors (RAR) and retinoic X receptors (RXR) which are localized in the cell nucleus. RXRs form heterodimers with PPARs in transcriptional complexes known to target genes for energy expenditure and fat oxidation (Bonet et al., 2015).

cytochrome P450 enzymes = settings: in vivo studies in humans; cited from earlier work

RNA and protein expression of uncoupling protein-1, adipose tissue glyceride lipase, carnitine palmitoyl transferase-1, glucose transporter-4, ChREBP alpha and beta (human adipocytes [5]; naringenin at 10 micromolar): increasing RNA and protein expression
Structure (SMILES): O=C1C[C@@H](c2ccc(O)cc2)Oc2cc(O)cc(O)c21 [naringenin]
protein levels of UCP1, GLUT4, and ChREBP (human adipocytes [1]; 10 μM naringenin for 7 days): Corresponding increases | AMPK activation (phospho-AMPK) (human adipocytes [1]; naringenin 0, 3 or 7d): activates AMPK | concentration needed to elicit a physiologic response [2]: 1-200 μm | weight gain, glucose metabolism and muscle function (ovariectomized mice; ovariectomized mice fed a high fat diet): reversed the weight gain and improved glucose metabolism and muscle function | fasting glucose, insulin (and cholesterol) levels (ovariectomized mice; ovariectomized mice): improved fasting glucose, insulin and cholesterol levels | weight gain caused by ovariectomy (ovariectomized mice; ovariectomized mice): prevented the weight gain | loss of body weight ([3]; 150 mg three times a day, in 8 weeks): 2.3% | reduction in HOMA-IR ([3]; absolute, eight weeks vs baseline): 0.6 | maximal respiratory quotient increase above baseline ([3]; at one hour): 1.2% | RMR peak above baseline ([3]; at one hour, after eight weeks): 3.5% | triglycerides after eight weeks ([3]; baseline 53 mg/dL): 70 mg/day | HOMA-IR at the end of the study ([3]; baseline 3.4): 2.8 | Low density lipoprotein cholesterol decrease ([3]; calculated with the Friedewald equation): 10.3 mg/dL | adverse events ([3]; eight weeks): No adverse events were reported | blood safety markers ([3]; eight weeks): within their reference ranges; also recorded: no clinically significant changes | change in respiratory quotient ([3]; eight weeks): no change; also recorded: did not change | HOMA-IR reduction ([3]; eight weeks vs baseline): 17.6% | change in glucose ([3]; eight weeks vs baseline): not clinically significant | triglycerides increase ([3]; eight weeks vs baseline 53 mg/dL): 32% | loss of body weight at the 6 month plateau ([3]; extrapolated from 8 weeks): 4.6% | Body weight decrease ([3]; over eight weeks, vs baseline): 2.3 kg | activation of PPARα (PPARα): Direct activation | serum concentrations of naringenin ([4]; after orange juice and fruit): < 1 μm | presence in serum ([4]; lowest dose of 150 mg): present in serum at concentrations sufficient to elicit a physiologic response | physiologically attainable concentration ([4]; pharmacokinetic studies in humans): 10 μM | adverse events ([4]; single ascending dose trial of whole orange extract): no adverse events were observed at any dose | expression of UCP1, GLUT4 and CPT-1 genes (human adipocytes [5]; 10 μM for seven days, human subcutaneous adipocytes): Significant increases | Adiponectin RNA expression and adiponectin protein levels (human adipocytes [5]; naringenin at 10 micromolar): went up | inhibition of cytochrome P450 enzymes (cytochrome P450 enzymes): not the main inhibitory compound in grapefruit
